Results published in patent US12090147B2, “Combination therapy with 2-(4-chlorophenyl)-N-((2-(2,6-dioxopiperidin-3-yl)-1-oxoisoindolin-5-yl)methyl)-2,2-difluoroacetamide” (Celgene Corporation, priority 2019, dated 2024).
Residues, ends and D or L forms follow the SMILES beside them. *: point of attachment. Cbz = O=C(OCc1ccccc1)*; CH2F = FC*

What was measured:
Assay type in all cases: cell-based, human
ML-2 [1] = assay: Cytokine induction, electrochemiluminescence assay of culture supernatant; conditions: for Effect of caspase inhibitor on secreted IL-1β induction by Compound 1: 1000 nM Compound 1 with 1, 10, 100 μM inhibitor; for Effect of second agent on Compound 1 induced IL-1β: ML-2 (FIG. 12); for Secreted IL-1β in cell culture supernatant: 24, 48 and 72 hours, doses conferring similar caspase3/7 activation and viability loss
Description: (§1) For cytokine assays on AML cell lines, cells were seeded at 1 million per mL, 3 mL per well of 6-well plates and allowed set overnight. The next day, cells were treated with 3 μL 1000× working stock of compounds of interest.
(§2) Human AML cell lines, HL-60 (CCL-240), KG-1 (CCL-246), ML-2 (ACC-15), MOLM-13 (ACC-554), MV-4-11 (CRL-9591), NOMO-1 (ACC-542), TF-1 (CRL-2003), THP-1 (TIB-202), and U937 (CRL-1593) were obtained from American Type Culture Collection (ATCC; Manassas, VA) or Deutsche Sammlung von Mikroorganismen and Zellkulturen (DSMZ, Germany) cell banks. Acute myeloid leukemia cell lines were maintained in RPMI-1640 (ATCC Cat No. 30-2001) containing 20% fetal bovine serum (FBS) (Corning Cat No. 35-010-CV) and maintained in humidified incubators at 5% carbon dioxide.
(§3) IL-1α (Meso Scale Disgnostics, Cat No. K151RBD), IL-1β (Meso Scale Disgnostics, Cat No. K151QPD), IL-1RA (Meso Scale Disgnostics, Cat No. K151WTD), IL-18 (Meso Scale Disgnostics, Cat No. K151VJK), TNFa (Meso Scale Disgnostics, Cat No. K151QWD), VEGF Meso Scale Disgnostics, Cat No. K151RHD) levels were measured by (Meso Scale Disgnostics assay kits following manufacturer's instructions. Measurements were made on a MESO™ SECTOR S 600 plate reader (Meso Scale Disgnostics).
(§4) Cell proliferation (CTG) and caspase 3/7 activation (IncuCyte) were analyzed using GraphPad Prism. Electrochemiluminescence data was analyzed using MSD Discovery Workbench platform.
(§5) The level of intracellular pro IL-1β and released IL-1β in eight AML cell lines and normal PBMC treated with a titration of Compound 1 over a 48 hour period was assessed. (see FIGS. 1A-1C, Table 2). Supernatant IL-1βb level was induced over 5 fold in 6 out of 8 AML cell lines and normal PBMC upon Compound 1 treatment compared to DMSO (FIGS. 1A, 1B, and 1C, Table 2).

MV4-11 [2] = assay: as above; conditions: for Effect of caspase inhibitor on secreted IL-1β induction by Compound 1: MV411, 1000 nM Compound 1 with 10 μM inhibitor
Description: as §1, §2, §3, §4, §5

MOLM-13 = assay: as above; conditions: for Effect of second agent on Compound 1 induced IL-1β: MOLM13 (FIG. 13)
Description: as §1, §2, §3, §4, §5

ML-2 cells = assay: Immunoblot analysis of target proteins; conditions: 24, 48 and 72 hours, doses conferring similar caspase3/7 activation and viability loss
Description: Cells were washed in ice-cold 1×PBS twice before harvest in Cell Extraction Buffer (ThermoFisher Cat No. FNN0011) supplemented with 1× Halt Protease Inhibitor Cocktail (ThermoFisher Cat No. 78429). Whole cell extracts were collected after centrifugation at 14,000 g for 10 minutes, resolved on 4-12% Bis-Tris Novex Precast Gels (ThermoFisher Cat No. WG1403A), transferred onto a nitrocellulose membrane using the Turboblot Turbo Transfer System (Bio-Rad), and probed with the indicated primary antibodies. Bound antibodies were detected with IRDye-680 or -800 conjugated secondary antibodies using a LI-COR scanner.
Antibodies used for immunoblot: mouse anti-human GSPT-1 mAb conjugated with AL647 (clone number GSPT1-164-17G9-G6, Celgene, San Diego, CA), IL-1β (R&D Systems, Cat No. AF-201-NA), cleaved caspase 3 (Cell Signaling, Cat No. 9664S), alpha-tubulin (Cell Signaling, Cat No. 3873S), cleaved Caspase-8 (Cell Signaling, Cat No. 9748S), Caspase-1 (Cell Signaling, Cat No. 3866S), HA tag (Cell Signaling, Cat No. 3724), phosphor-eIF2a (Cell Signaling, Cat No. 9721), total eIF2a (Cell Signaling, Cat No. 9722), ATF4 (Cell Signaling, Cat No. 11815S), CHOP (Abcam, Cat No. 11419), GAPDH (Cell Signaling, Cat No. 5174), rabbit anti-mouse 800 antibody (LI-COR Biosciences), rabbit anti-mouse 680 antibody (LI-COR Biosciences), mouse anti-rabbit 680 antibody (LI-COR Biosciences), mouse anti-rabbit 800 antibody (LI-COR Biosciences)
as §5

KG-1 = assay: Cytokine induction, electrochemiluminescence assay of culture supernatant
Description: as §1, §2, §3, §4, §5

NOMO-1 = assay: as above
Description: as §1, §2, §3, §4, §5

TF-1 = assay: as above
Description: as §1, §2, §3, §4, §5

THP-1 = assay: as above
Description: as §1, §2, §3, §4, §5

U937 = assay: as above
Description: as §1, §2, §3, §4, §5

[3] = system: Normal Peripheral Blood Mononuclear Cells; assay: as above; conditions: PBMC
Description: Normal PBMCs were purchased from AllCells (Cat No. PB006F). Primary AML BMMC in were purchased from Conversant (SKU ID: BBM1000-E1110036458110215SH) or Fidelis Research (AML55, AML57, AML73, AML74, AML76, AML79, AML80, AML81, AML84, AML95). Bone marrow from health donor was purchased from StemCell Technologies (Cat No. 70001.2).
Normal PBMCs were cultured in RPMI-1640 (ATCC Cat No. 30-2001) containing 20% fetal bovine serum (Corning Cat No. 35-010-CV). Primary AML and bone marrows were cultured in Complete Medium Cytokines 1X: StemSpam™ Serum-Free Expansion Medium (StemCell Technologies Cat No. 09650) supplemented with 50 ng/mL Stem Cell Factor (Peprotech Cat No. 300-07), 50 ng/mL recombinant Human FLT3-Ligand (Peprotech Cat No. 300-19), 20 ng/mL recombinant human-interleukin-3 (Peprotech Cat No. 200-03), […] recombinant human-interleukin-6 (Peprotech Cat No. 200-06), 1 μM StemRegenin (StemCell Technologies Cat No. 72342), penicillin/streptomycin (Invitrogen Cat No. 15140122).
as §3, §4, §5

[4] = system: eight AML cell lines and normal PBMC; assay: IL-1 family cytokine induction across the cell panel; conditions: most cell lines tested (FIG. 1B: ML-2); LPS as positive control
Description: as §1, §3, §5
The maturation of IL-1β can be mediated through classical caspase-1 inflammasome pathway, or a caspase-8 dependent non-canonical inflammasome signaling (Antonopoulos et al. J Biol Chem. 2015, 290(33):20167-84; Chauhan et al. Cell Rep. 2018, 25(9):2354-2368; and Schneider et al. Cell Rep. 2017, 21(13):3846-3859). To understand if classical caspase-1 mediated inflammasome pathway was activated by Compound 1, the levels of an inflammasome marker, IL-18, were tested in response to Compound 1 (FIG. 1B, Table 1), using a known inflammasome stimulant lipopolysaccharide (LPS) as positive control.

ML-2 [5] = assay: Caspase 8/FLICE activity colorimetric assay; conditions: compounds at 1 μM, 24, 48 and 72 hours
Description: (§6) Next, tests were performed to see if caspase 8 activation alone is sufficient to mediate IL-1β induction. […] To ensure caspase 8 activity was captured at an appropriate time frame, caspase 8 activation levels at 24, 48 and 72 hours were measured (FIGS. 3C and 3D) using a caspase 8/FLICE activity colorimetric assay.

MV4-11 [6] = assay: Caspase 8/FLICE activity colorimetric assay; conditions: compounds at 1 μM, 24, 48 and 72 hours
Description: as §6

ML-2 [7] = assay: Cytokine induction, electrochemiluminescence assay of culture supernatant; conditions: compounds at 1 μM, 72 hours
MV4-11 [8] = assay: as above; conditions: compounds at 1 μM, 72 hours

Z-YVAD
Effect of caspase inhibitor on secreted IL-1β induction by Compound 1 (ML-2 [1]; ML-2): did not suppress IL-1β induction to nearly the same extent as pan- or caspase 8 inhibitors
Effect of caspase inhibitor on secreted IL-1β induction by Compound 1 (MV4-11 [2]): did not suppress IL-1β induction to nearly the same extent as pan- or caspase 8 inhibitors

C[C@]12C=CC(=O)C=C1CC[C@@H]1[C@@H]2[C@@H](O)C[C@@]2(C)[C@H]1CC[C@]2(O)C(=O)CO [prednisolone]
Effect of second agent on Compound 1 induced IL-1β (ML-2 [1]): can be suppressed
Effect of second agent on Compound 1 induced IL-1β (MOLM-13): can be suppressed

COC(=O)C[C@H](NC(=O)[C@H](C)NC(=O)[C@@H](NC(=O)OCc1ccccc1)C(C)C)C(=O)CF [Z-VAD-FMK] (Cbz-Val-Ala-Asp(OMe)-CH2F)
Effect of caspase inhibitor on secreted IL-1β induction by Compound 1 (ML-2 [1]; ML-2): significantly blocked
Effect of caspase inhibitor on secreted IL-1β induction by Compound 1 (MV4-11 [2]): significantly blocked

C[C@@H]1C[C@@H]([C@H](O)CC2CC(=O)NC(=O)C2)C(=O)[C@@H](C)C1 [cycloheximide, reference compound]
Secreted IL-1β in cell culture supernatant (ML-2 [1]; ML-2): not able to induce high levels
Intracellular pro-IL-1β (immunoblot) (ML-2 cells): not able to induce high levels

lipopolysaccharide [LPS, reference compound]
IL-1β induction (KG-1): 17.67
IL-18 induction (KG-1): 3.47
IL-1β induction (ML-2 [1]; ML-2): 8.70
IL-18 induction (ML-2 [1]; ML-2): 1.21
IL-1β induction (MOLM-13; MOLM-13): 0.00
IL-1β induction (MV4-11 [2]; MV4-11): 65.19
IL-18 induction (MV4-11 [2]; MV4-11): 24.45
IL-1β induction (NOMO-1): 3.11
IL-18 induction (NOMO-1): 1.77
IL-1β induction (TF-1): 1.12
IL-18 induction (TF-1): 1.41
IL-1β induction (THP-1): 96.62
IL-18 induction (THP-1): 12.13
IL-1β induction (U937): 1.44
IL-18 induction (U937): 1.28
IL-1β induction [3]: 174.15
IL-18 induction [3]: 1.88
IL-18 levels (inflammasome marker) [4]: profound IL-18 induction at early time point (6 hrs)

C[C@]12C=CC(=O)C=C1CC[C@H]1[C@@H]3C[C@@H](O)[C@](O)(C(=O)CO)[C@@]3(C)C[C@H](O)[C@@]12F [triamcinolone]
Effect of second agent on Compound 1 induced IL-1β (ML-2 [1]): can be suppressed
Effect of second agent on Compound 1 induced IL-1β (MOLM-13): can be suppressed

CC(C)C[C@H](NC(=O)[C@H](Cc1ccccc1)NC(=O)c1cnccn1)B(O)O [bortezomib]
IL-1β induced by ER stress / unfolded protein response inducers (ML-2 [1]; ML-2): Low levels of IL-1β was induced
Secreted IL-1β in cell culture supernatant (ML-2 [1]; ML-2): not able to induce high levels
Intracellular pro-IL-1β (immunoblot) (ML-2 cells): not able to induce high levels

CC(C)(C)[C@H](NC(=O)c1ccc(N)c(Cl)c1)C(=O)N1CCC[C@H]1C(=O)N[C@H](C=O)CC(=O)O [VRT043198]
Effect of caspase inhibitor on secreted IL-1β induction by Compound 1 (ML-2 [1]; ML-2): did not suppress IL-1β induction to nearly the same extent as pan- or caspase 8 inhibitors
Effect of caspase inhibitor on secreted IL-1β induction by Compound 1 (MV4-11 [2]): did not suppress IL-1β induction to nearly the same extent as pan- or caspase 8 inhibitors

C[C@]12C=CC(=O)C=C1CC[C@@H]1[C@@H]2C(=O)C[C@@]2(C)[C@H]1CC[C@]2(O)C(=O)CO [prednisone]
Effect of second agent on Compound 1 induced IL-1β (ML-2 [1]): can be suppressed
Effect of second agent on Compound 1 induced IL-1β (MOLM-13): can be suppressed

C[C@]12CCC(=O)C=C1CC[C@@H]1[C@@H]2[C@@H](O)C[C@@]2(C)[C@H]1CC[C@]2(O)C(=O)CO [cortisol]
Effect of second agent on Compound 1 induced IL-1β (ML-2 [1]): can be suppressed
Effect of second agent on Compound 1 induced IL-1β (MOLM-13): can be suppressed

CC[C@H](C)[C@H](NC(=O)OCc1ccccc1)C(=O)N[C@@H](CCC(=O)OC)C(=O)N[C@H](C(=O)N[C@@H](CC(=O)OC)C(=O)CF)[C@@H](C)O [Z-VAD-IETD] (Cbz-IE(OMe)TD(OMe)-CH2F)
Effect of caspase inhibitor on secreted IL-1β induction by Compound 1 (ML-2 [1]; ML-2): significantly blocked
Effect of caspase inhibitor on secreted IL-1β induction by Compound 1 (MV4-11 [2]): significantly blocked

C[C@]12CCC(=O)C=C1CC[C@@H]1[C@@H]2C(=O)C[C@@]2(C)[C@H]1CC[C@]2(O)C(=O)CO [cortisone]
Effect of second agent on Compound 1 induced IL-1β (ML-2 [1]): can be suppressed
Effect of second agent on Compound 1 induced IL-1β (MOLM-13): can be suppressed

COc1cccc2c1C(=O)c1c(O)c3c(c(O)c1C2=O)C[C@@](O)(C(C)=O)C[C@@H]3O[C@H]1C[C@H](N)[C@H](O)[C@H](C)O1 [daunorubicin, reference compound]
Caspase 8 activation level (ML-2 [5]): higher extent of caspase 8 activation than Compound 1
Caspase 8 activation level (MV4-11 [6]): higher extent of caspase 8 activation than Compound 1
Secreted IL-1β levels, panel of mechanistic compounds (ML-2 [7]): not able to induce secreted IL-1β as efficiently as Compound 1
Secreted IL-1β levels, panel of mechanistic compounds (MV4-11 [8]): not able to induce secreted IL-1β as efficiently as Compound 1

C/C=C(/C)C(=O)O[C@H]1C(C)=C2[C@H]([C@@H]1OC(=O)CCCCCCC)[C@@](C)(OC(C)=O)C[C@H](OC(=O)CCC)[C@@]1(O)[C@H]2OC(=O)[C@@]1(C)O [thapsigargin]
IL-1β induced by ER stress / unfolded protein response inducers (ML-2 [1]; ML-2): Low levels of IL-1β was induced
Secreted IL-1β in cell culture supernatant (ML-2 [1]; ML-2): not able to induce high levels
Intracellular pro-IL-1β (immunoblot) (ML-2 cells): not able to induce high levels
